According to publication PMC7385619, “A triple action CDK4/6-PI3K-BET inhibitor with augmented cancer cell cytotoxicity” (Cell Discovery, 2020):
Where two headings read alike, the source gives them in different places.

How the values were obtained:
Assay in all cases: KINOMEscan assay (Eurofins DiscoverX)
Type in all cases: binding
kinome (kinase panel) [1] = conditions: for Percent Control: 1000 nM
kinome (kinase panel) [2] = biological target: T1, kinome (kinase panel) (Homo sapiens, UniProt P45985); conditions: MEK4 (Entrez MAP2K4); 1000 nM; read-out: Percent Control
T1 construct: purchased Eurofins DiscoverX

kinome (kinase panel) [3] = biological target: T2, kinome (kinase panel) (Homo sapiens, UniProt Q13627); conditions: DYRK1A; 1000 nM; read-out: Percent Control
T2 construct: purchased Eurofins DiscoverX

kinome (kinase panel) [4] = biological target: T3, kinome (kinase panel) (Homo sapiens, UniProt Q8IW41); conditions: MAPKAPK5; 1000 nM; read-out: Percent Control
T3 construct: purchased Eurofins DiscoverX

kinome (kinase panel) [5] = biological target: T4, kinome (kinase panel) (Homo sapiens, UniProt P35916); conditions: FLT4; 1000 nM; read-out: Percent Control
T4 construct: purchased Eurofins DiscoverX

kinome (kinase panel) [6] = biological target: T5, kinome (kinase panel) (Homo sapiens, UniProt P53355); conditions: DAPK1; 1000 nM; read-out: Percent Control
T5 construct: purchased Eurofins DiscoverX

kinome (kinase panel) [7] = biological target: T6, kinome (kinase panel) (Homo sapiens, UniProt P00533, L858R/T790M); conditions: read-out: Percent Control
T6 construct: purchased Eurofins DiscoverX

kinome (kinase panel) [8] = biological target: T7, kinome (kinase panel) (Homo sapiens, UniProt Q14004); conditions: CDC2L5 (Entrez CDK13); 1000 nM; read-out: Percent Control
T7 construct: purchased Eurofins DiscoverX

kinome (kinase panel) [9] = biological target: T8, kinome (kinase panel) (Homo sapiens, UniProt Q9Y3S1); conditions: WNK2; 1000 nM; read-out: Percent Control
T8 construct: purchased Eurofins DiscoverX

kinome (kinase panel) [10] = biological target: T9, kinome (kinase panel) (Homo sapiens, UniProt Q04912); conditions: MST1R; 1000 nM; read-out: Percent Control
T9 construct: purchased Eurofins DiscoverX

kinome (kinase panel) [11] = biological target: T10, kinome (kinase panel) (Homo sapiens, UniProt O94806); conditions: PRKD3; 1000 nM; read-out: Percent Control
T10 construct: purchased Eurofins DiscoverX

kinome (kinase panel) [12] = biological target: T11, kinome (kinase panel) (Homo sapiens, UniProt P37173); conditions: TGFBR2; 1000 nM; read-out: Percent Control
T11 construct: purchased Eurofins DiscoverX

kinome (kinase panel) [13] = biological target: T12, kinome (kinase panel) (Homo sapiens, UniProt O94804); conditions: LOK (Entrez STK10); 1000 nM; read-out: Percent Control
T12 construct: purchased Eurofins DiscoverX

kinome (kinase panel) [14] = biological target: T13, kinome (kinase panel) (Homo sapiens, UniProt P08581, Y1235D); conditions: […]; 1000 nM; read-out: Percent Control
T13 construct: purchased Eurofins DiscoverX

kinome (kinase panel) [15] = biological target: T14, kinome (kinase panel) (Homo sapiens, UniProt Q16513); conditions: PKN2; 1000 nM; read-out: Percent Control
T14 construct: purchased Eurofins DiscoverX

kinome (kinase panel) [16] = biological target: T15, kinome (kinase panel) (Homo sapiens, UniProt Q8WTQ7); conditions: GRK7; 1000 nM; read-out: Percent Control
T15 construct: purchased Eurofins DiscoverX

kinome (kinase panel) [17] = biological target: T16, kinome (kinase panel) (Plasmodium falciparum, UniProt P62344); conditions: PFCDPK1(P.falciparum) (Entrez CDPK1); 1000 nM; read-out: Percent Control
T16 construct: purchased Eurofins DiscoverX

kinome (kinase panel) [18] = biological target: T17, kinome (kinase panel) (Homo sapiens, UniProt P11362); conditions: FGFR1; 1000 nM; read-out: Percent Control
T17 construct: purchased Eurofins DiscoverX

kinome (kinase panel) [19] = biological target: T18, kinome (kinase panel) (Homo sapiens, UniProt Q15835); conditions: GRK1; 1000 nM; read-out: Percent Control
T18 construct: purchased Eurofins DiscoverX

kinome (kinase panel) [20] = biological target: T19, kinome (kinase panel) (Homo sapiens, UniProt Q9Y4K4); conditions: MAP4K5; 1000 nM; read-out: Percent Control
T19 construct: purchased Eurofins DiscoverX

kinome (kinase panel) [21] = biological target: T20, kinome (kinase panel) (Homo sapiens, UniProt P10721, L576P); conditions: […]; 1000 nM; read-out: Percent Control
T20 construct: purchased Eurofins DiscoverX

kinome (kinase panel) [22] = biological target: T21, kinome (kinase panel) (Homo sapiens, UniProt Q9BX84); conditions: TRPM6; 1000 nM; read-out: Percent Control
T21 construct: purchased Eurofins DiscoverX

kinome (kinase panel) [23] = biological target: T22, kinome (kinase panel) (Homo sapiens, UniProt P11802); conditions: 1000 nM, read-out: Percent Control
T22 construct: purchased Eurofins DiscoverX

kinome (kinase panel) [24] = biological target: T23, kinome (kinase panel) (Homo sapiens, UniProt Q8N4C8); conditions: MINK (Entrez MINK1); 1000 nM; read-out: Percent Control
T23 construct: purchased Eurofins DiscoverX

kinome (kinase panel) [25] = biological target: T24, kinome (kinase panel) (Homo sapiens, UniProt Q9UHD2); conditions: TBK1; 1000 nM; read-out: Percent Control
T24 construct: purchased Eurofins DiscoverX

kinome (kinase panel) [26] = biological target: T25, kinome (kinase panel) (Homo sapiens, UniProt P00533, L861Q); conditions: […]; 1000 nM; read-out: Percent Control
T25 construct: purchased Eurofins DiscoverX

kinome (kinase panel) [27] = biological target: T26, kinome (kinase panel) (Homo sapiens, UniProt Q9Y2I7); conditions: PIKFYVE; 1000 nM; read-out: Percent Control
T26 construct: purchased Eurofins DiscoverX

kinome (kinase panel) [28] = biological target: T27, kinome (kinase panel) (Homo sapiens, UniProt O94768); conditions: DRAK2 (Entrez STK17B); 1000 nM; read-out: Percent Control
T27 construct: purchased Eurofins DiscoverX

kinome (kinase panel) [29] = biological target: T28, kinome (kinase panel) (Homo sapiens, UniProt P04629); conditions: TRKA (NTRK1); 1000 nM; read-out: Percent Control
T28 construct: purchased Eurofins DiscoverX

kinome (kinase panel) [30] = biological target: T29, kinome (kinase panel) (Homo sapiens, UniProt P42345); conditions: MTOR; 1000 nM; read-out: Percent Control
T29 construct: purchased Eurofins DiscoverX

kinome (kinase panel) [31] = biological target: T30, kinome (kinase panel) (Homo sapiens, UniProt Q8TDC3); conditions: BRSK1; 1000 nM; read-out: Percent Control
T30 construct: purchased Eurofins DiscoverX

kinome (kinase panel) [32] = biological target: T31, kinome (kinase panel) (Homo sapiens, UniProt P08922); conditions: ROS1; 1000 nM; read-out: Percent Control
T31 construct: purchased Eurofins DiscoverX

T22 sequence (P11802 whole entry): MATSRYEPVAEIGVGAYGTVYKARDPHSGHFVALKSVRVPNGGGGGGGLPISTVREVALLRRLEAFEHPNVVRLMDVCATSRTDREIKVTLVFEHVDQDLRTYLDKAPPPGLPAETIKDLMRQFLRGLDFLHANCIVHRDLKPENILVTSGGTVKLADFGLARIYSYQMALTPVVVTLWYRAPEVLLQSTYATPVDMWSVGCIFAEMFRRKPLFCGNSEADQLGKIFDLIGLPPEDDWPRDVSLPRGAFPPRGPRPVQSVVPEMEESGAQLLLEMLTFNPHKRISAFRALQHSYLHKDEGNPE
T15 sequence (Q8WTQ7 whole entry): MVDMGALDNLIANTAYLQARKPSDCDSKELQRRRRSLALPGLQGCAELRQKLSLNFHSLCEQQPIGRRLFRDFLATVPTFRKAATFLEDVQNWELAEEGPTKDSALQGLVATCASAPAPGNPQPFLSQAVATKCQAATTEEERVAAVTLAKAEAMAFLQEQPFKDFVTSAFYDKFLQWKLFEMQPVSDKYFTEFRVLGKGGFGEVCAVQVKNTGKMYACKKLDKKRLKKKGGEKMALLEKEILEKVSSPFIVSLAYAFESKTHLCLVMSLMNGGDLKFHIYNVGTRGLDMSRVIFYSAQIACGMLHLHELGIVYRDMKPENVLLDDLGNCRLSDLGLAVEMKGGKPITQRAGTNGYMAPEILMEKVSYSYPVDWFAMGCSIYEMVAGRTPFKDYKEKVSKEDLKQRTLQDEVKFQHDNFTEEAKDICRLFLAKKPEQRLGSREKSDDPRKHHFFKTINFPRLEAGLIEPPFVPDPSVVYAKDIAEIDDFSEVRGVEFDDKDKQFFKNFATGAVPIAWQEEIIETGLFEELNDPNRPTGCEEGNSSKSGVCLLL
T11 sequence (P37173 23-567): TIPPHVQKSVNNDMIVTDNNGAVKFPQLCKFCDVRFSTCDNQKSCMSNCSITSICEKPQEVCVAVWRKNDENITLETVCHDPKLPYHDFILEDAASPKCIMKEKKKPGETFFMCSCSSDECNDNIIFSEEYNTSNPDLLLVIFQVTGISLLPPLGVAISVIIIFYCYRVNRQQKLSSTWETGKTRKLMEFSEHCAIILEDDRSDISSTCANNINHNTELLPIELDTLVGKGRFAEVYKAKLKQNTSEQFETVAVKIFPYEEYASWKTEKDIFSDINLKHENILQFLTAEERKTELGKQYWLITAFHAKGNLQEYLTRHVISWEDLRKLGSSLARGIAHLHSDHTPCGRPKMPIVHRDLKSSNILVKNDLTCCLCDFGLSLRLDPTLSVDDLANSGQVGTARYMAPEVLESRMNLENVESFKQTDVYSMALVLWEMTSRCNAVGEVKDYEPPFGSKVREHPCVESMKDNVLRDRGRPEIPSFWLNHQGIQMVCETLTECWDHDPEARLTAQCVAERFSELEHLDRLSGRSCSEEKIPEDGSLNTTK
T3 sequence (Q8IW41 whole entry): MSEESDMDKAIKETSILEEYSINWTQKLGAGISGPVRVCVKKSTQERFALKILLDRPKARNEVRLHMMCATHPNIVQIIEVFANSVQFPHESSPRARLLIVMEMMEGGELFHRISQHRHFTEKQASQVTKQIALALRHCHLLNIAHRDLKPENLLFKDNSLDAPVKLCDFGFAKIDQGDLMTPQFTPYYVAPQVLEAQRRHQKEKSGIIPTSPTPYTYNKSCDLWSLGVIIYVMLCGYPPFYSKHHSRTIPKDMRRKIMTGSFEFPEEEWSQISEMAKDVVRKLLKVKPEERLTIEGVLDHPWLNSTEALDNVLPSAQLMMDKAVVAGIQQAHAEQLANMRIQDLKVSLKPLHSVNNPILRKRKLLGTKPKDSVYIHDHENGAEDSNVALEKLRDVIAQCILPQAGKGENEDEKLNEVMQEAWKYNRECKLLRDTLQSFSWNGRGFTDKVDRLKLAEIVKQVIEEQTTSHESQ
T24 sequence (Q9UHD2 whole entry): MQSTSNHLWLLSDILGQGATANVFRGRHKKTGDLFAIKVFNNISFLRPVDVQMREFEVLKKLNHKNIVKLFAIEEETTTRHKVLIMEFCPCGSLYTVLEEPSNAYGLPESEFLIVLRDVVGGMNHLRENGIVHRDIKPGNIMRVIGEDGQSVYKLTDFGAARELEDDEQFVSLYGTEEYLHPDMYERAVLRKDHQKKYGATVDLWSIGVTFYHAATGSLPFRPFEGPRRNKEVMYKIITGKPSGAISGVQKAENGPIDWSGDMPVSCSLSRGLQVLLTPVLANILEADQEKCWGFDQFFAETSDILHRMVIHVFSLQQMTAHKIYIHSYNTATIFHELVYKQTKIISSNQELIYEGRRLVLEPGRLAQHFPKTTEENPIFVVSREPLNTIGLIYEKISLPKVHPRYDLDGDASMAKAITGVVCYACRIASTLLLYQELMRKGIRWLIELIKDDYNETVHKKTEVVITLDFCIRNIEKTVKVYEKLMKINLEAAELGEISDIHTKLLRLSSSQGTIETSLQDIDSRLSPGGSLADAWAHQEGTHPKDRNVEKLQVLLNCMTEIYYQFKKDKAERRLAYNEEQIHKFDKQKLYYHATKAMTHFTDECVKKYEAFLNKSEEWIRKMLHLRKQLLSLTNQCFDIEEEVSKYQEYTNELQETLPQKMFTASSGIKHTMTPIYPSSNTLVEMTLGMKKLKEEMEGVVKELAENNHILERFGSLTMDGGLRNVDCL
T4 sequence (P35916 25-1363): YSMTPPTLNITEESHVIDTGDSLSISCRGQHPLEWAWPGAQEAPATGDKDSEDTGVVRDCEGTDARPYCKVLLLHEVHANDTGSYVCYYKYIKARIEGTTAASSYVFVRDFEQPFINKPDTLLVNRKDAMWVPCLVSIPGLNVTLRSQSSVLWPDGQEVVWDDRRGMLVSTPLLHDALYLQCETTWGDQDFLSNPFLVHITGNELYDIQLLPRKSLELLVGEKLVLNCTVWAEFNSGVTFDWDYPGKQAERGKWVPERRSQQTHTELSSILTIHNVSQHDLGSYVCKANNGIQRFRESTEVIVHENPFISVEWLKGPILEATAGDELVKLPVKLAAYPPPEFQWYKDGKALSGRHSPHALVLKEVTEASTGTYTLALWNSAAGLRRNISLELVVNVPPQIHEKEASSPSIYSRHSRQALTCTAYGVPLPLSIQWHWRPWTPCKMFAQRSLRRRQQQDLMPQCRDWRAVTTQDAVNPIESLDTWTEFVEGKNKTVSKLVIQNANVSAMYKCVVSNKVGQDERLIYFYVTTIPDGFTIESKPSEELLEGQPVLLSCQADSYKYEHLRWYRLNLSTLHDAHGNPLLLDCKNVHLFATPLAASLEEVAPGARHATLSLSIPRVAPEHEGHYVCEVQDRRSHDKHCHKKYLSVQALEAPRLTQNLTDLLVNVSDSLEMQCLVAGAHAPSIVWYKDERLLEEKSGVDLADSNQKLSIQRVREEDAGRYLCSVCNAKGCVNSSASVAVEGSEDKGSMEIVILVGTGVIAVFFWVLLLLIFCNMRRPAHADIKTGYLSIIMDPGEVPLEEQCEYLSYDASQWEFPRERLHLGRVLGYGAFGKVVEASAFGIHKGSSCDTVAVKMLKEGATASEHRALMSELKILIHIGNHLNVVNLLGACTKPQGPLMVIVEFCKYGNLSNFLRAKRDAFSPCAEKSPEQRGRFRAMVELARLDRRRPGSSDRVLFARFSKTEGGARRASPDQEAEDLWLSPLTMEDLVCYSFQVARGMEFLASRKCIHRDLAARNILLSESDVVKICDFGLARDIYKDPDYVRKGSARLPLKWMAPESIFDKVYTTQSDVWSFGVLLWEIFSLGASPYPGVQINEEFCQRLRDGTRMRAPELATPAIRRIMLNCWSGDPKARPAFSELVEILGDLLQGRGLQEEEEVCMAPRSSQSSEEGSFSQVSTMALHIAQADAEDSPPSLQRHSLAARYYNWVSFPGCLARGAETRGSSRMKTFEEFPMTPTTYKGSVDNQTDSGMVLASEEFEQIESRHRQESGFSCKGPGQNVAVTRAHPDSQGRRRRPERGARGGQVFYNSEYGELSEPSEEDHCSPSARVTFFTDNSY
T14 sequence (Q16513 whole entry): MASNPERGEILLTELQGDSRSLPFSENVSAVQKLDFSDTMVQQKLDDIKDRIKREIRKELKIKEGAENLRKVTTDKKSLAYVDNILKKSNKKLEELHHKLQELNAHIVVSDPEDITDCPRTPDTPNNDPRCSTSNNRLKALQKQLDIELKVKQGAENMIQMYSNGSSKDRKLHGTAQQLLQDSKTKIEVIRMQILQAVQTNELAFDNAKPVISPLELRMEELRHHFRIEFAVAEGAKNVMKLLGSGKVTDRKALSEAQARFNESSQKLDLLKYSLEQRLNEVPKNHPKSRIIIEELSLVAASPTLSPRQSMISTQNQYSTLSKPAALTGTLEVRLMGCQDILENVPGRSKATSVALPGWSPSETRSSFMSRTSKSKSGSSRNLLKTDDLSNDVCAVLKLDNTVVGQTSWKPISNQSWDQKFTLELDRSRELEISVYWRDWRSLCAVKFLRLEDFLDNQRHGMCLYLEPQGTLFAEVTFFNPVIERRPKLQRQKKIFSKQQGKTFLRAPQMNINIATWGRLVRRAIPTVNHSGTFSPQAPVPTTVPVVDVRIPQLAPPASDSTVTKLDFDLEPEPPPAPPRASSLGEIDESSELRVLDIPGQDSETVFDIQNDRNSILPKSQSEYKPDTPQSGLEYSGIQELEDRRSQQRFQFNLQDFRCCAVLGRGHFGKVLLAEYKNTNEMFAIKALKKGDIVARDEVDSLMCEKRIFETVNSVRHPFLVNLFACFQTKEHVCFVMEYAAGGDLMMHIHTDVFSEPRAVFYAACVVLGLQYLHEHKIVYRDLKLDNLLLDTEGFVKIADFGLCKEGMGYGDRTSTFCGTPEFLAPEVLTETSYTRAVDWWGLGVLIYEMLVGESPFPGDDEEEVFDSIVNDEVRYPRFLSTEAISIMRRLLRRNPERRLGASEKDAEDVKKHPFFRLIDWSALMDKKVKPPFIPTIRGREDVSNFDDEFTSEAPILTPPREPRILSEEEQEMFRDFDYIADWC

Compound: CN(C)C(=O)c1cc2cnc(Nc3ccc(-c4csc5c(=O)cc(N6CCOCC6)oc45)cc3)nc2n1C1CCCC1 [SRX3177]
- specificity in KINOMEscan (kinome (kinase panel) [1]): lack of off-targeting
- Percent Control (kinome (kinase panel) [1]; EGFR(L747-E749del, A750P)): 100
- Percent Control (kinome (kinase panel) [1]; EGFR(L747-S752del, P753S)): 65
- Percent Control (kinome (kinase panel) [1]; EGFR(L747-T751del,Sins)): 75
- Percent Control (kinome (kinase panel) [1]; FLT3(ITD)): 49
- Percent Control (kinome (kinase panel) [1]; FLT3(ITD,D835V)): 27
- Percent Control (kinome (kinase panel) [1]; FLT3(ITD,F691L)): 45
- remaining binding at 1 µM (kinome (kinase panel) [2]): 79%
- remaining binding at 1 µM (kinome (kinase panel) [3]): 60%
- remaining binding at 1 µM (kinome (kinase panel) [4]): 72%
- remaining binding at 1 µM (kinome (kinase panel) [5]): 88%
- remaining binding at 1 µM (kinome (kinase panel) [6]): 100%
- remaining binding at 1 µM (kinome (kinase panel) [7]): 58%
- remaining binding at 1 µM (kinome (kinase panel) [8]): 4.1%
- remaining binding at 1 µM (kinome (kinase panel) [9]): 77%
- remaining binding at 1 µM (kinome (kinase panel) [10]): 77%
- remaining binding at 1 µM (kinome (kinase panel) [11]): 92%
- remaining binding at 1 µM (kinome (kinase panel) [12]): 100%
- remaining binding at 1 µM (kinome (kinase panel) [13]): 100%
- remaining binding at 1 µM (kinome (kinase panel) [14]): 100%
- remaining binding at 1 µM (kinome (kinase panel) [15]): 70%
- remaining binding at 1 µM (kinome (kinase panel) [16]): 100%
- remaining binding at 1 µM (kinome (kinase panel) [17]): 71%
- remaining binding at 1 µM (kinome (kinase panel) [18]): 100%
- remaining binding at 1 µM (kinome (kinase panel) [19]): 79%
- remaining binding at 1 µM (kinome (kinase panel) [20]): 100%
- remaining binding at 1 µM (kinome (kinase panel) [21]): 58%
- remaining binding at 1 µM (kinome (kinase panel) [22]): 99%
- remaining binding at 1 µM (kinome (kinase panel) [23]; CDK4-cyclinD1): 0.9%
- remaining binding at 1 µM (kinome (kinase panel) [23]; CDK4-cyclinD3): 1.1%
- remaining binding at 1 µM (kinome (kinase panel) [23]; CDK4): 18%
- remaining binding at 1 µM (kinome (kinase panel) [24]): 77%
- remaining binding at 1 µM (kinome (kinase panel) [25]): 16%
- remaining binding at 1 µM (kinome (kinase panel) [26]): 74%
- remaining binding at 1 µM (kinome (kinase panel) [27]): 2.4%
- remaining binding at 1 µM (kinome (kinase panel) [28]): 100%
- remaining binding at 1 µM (kinome (kinase panel) [29]): 1.1%
- remaining binding at 1 µM (kinome (kinase panel) [30]): 79%
- remaining binding at 1 µM (kinome (kinase panel) [31]): 100%
- remaining binding at 1 µM (kinome (kinase panel) [32]): 96%
